From US20130040951A9, “PROPHYLACTIC OR THERAPEUTIC AGENT FOR CANCER” (Takeda Pharmaceutical Company Limited, priority 2009, published 2013)

Experiments:
[1] = molecular target: T1, fusion protein containing GAL4-DNA-binding domain and ERR full-length (Homo sapiens, UniProt P11474); experiment: Reporter assay system using 293T cells (GAL4-ERR luciferase, inverse agonist activity); format: cell-based; settings: HEK-293T; compound final concentration 3 μM, 1 day; luciferase activity in 293T cells; no compound = 0%, 10 μM XCT-790 = 100%; read-out: inhibition rate (%) at 3 μM
T1 construct: expressed in transfected cells; host or cells: 293T cells
T1 sequence (P11474 1-423): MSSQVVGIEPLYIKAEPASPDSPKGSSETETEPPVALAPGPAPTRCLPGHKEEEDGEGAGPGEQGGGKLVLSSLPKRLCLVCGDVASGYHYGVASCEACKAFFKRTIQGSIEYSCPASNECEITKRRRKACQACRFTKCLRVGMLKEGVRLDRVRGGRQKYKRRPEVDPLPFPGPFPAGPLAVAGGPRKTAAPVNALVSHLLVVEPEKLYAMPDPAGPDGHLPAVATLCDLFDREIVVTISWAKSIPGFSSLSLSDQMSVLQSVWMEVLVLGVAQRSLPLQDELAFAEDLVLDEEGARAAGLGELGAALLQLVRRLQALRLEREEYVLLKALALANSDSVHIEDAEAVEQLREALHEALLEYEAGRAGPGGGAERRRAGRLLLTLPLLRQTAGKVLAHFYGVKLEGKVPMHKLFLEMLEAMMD
Method: Compound Evaluation in Reporter Assay System Using 293T Cells
293T cells were seeded in a 150 cm^2 flask by 6,000,000 cells, and cultured in a medium (DMEM medium containing 10% inactivated Fetal Bovine Serum sterile filtered (FBS), 50 μg/ml Gentamicin, 10 mM HEPES buffer (pH 7.4)) at 37° C. in the presence of 5% CO2 for 1 day.
Then, vector DNA having a gene encoding a fusion protein containing GAL4-DNA-binding domain and ERR full-length and a vector DNA wherein luciferase gene is fused at the downstream of GAL4-binding sequence were cotransfected by a lipofection method, and the cells were cultured at 37° C. in the presence of 5% CO2 for 1 day. The cells were recovered, sown in a 384 well plate by 15,000 cells, and cultured at 37° C. in the presence of 5% CO2 for 3 hr. Furthermore, 50 μM XCT-790 (final concentration 10 μM) or 15 μM compound (final concentration 3 μM) was added, and the cells were cultured at 37° C. in the presence of 5% CO2 for 1 day. The luciferase activity was measured by using a multiplate reader Envision (Perkin Elmer Inc.). The inverse agonist activity of the compound was calculated in percentage with the luciferase activity inhibited by no addition of compound as 0%, and with addition of final concentration 10 μM of XCT-790 (N-[5-(trifluoromethyl)-1,3,4-thiadiazol-2-yl]-2-cyano-3-[3-methoxy-4-[2,4-di(trifluoromethyl)benzyloxy]phenyl]propenamide) as 100%.

[2] = molecular target: T2, GST-ERRα ligand-binding domain (Homo sapiens, UniProt P11474); experiment: HTRF assay system using ERRα ligand-binding domain (biotinylated SRC-1 (676-700) peptide); format: biochemical; settings: compound final concentration 3 μM, room temperature 2 hr; 615/665 ratio value; no compound = 0%, 10 μM XCT-790 = 100%; read-out: inhibition rate (%) at 3 μM
T2 sequence (P11474 193-421 limits assumed): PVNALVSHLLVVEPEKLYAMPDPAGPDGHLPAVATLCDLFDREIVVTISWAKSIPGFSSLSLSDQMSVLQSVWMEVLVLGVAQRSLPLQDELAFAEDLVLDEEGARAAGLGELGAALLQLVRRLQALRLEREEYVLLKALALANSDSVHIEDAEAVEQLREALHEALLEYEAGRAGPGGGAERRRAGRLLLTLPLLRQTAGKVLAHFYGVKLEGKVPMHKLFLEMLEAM
Method: Compound Evaluation in HTRF Assay System Using ERRα Ligand-Binding Domain
An assay buffer (25 mM HEPES, 100 mM NaCl, 1 mM DTT, 0.1% BSA) containing 5 nM GST-ERRα ligand-binding domain (final concentration 1.25 nM) was added to a 384 well plate, then […] XCT-790 (final concentration 10 μM), or 12 μM compound (final concentration 3 μM) was added. Furthermore, an assay buffer containing XL665 conjugated Streptavidine, Eu^3+criptate conjugated GST antibody and 200 nM biotinylated SRC-1 (676-700) (final concentration 100 nM) was added, and the mixture was reacted at room temperature for 2 hr. Using Multiplate reader Envision (Perkin Elmer Inc.), after excitation at 320 nm, fluorescence values at 615 nm and 665 nm were measured. The inverse agonist activity of the compound was calculated in percentage with the 615/665 ratio value inhibited by no addition of compound as 0%, and with addition of final concentration 10 μM of XCT-790 (N-[5-(trifluoromethyl)-1,3,4-thiadiazol-2-yl]-2-cyano-3-[3-methoxy-4-[2,4-di(trifluoromethyl)benzyloxy]phenyl]propenamide) as 100%.

[3] = system: ES-2 ovarian cancer cells; experiment: Cell proliferation inhibitory test (CCK-8); format: cell-based; settings: compound final concentration 10 μM, 72 hr; CCK-8 absorbance at 450 nm; DMSO alone = 0%, cell-free well with medium only = 100%; read-out: inhibition rate (%) at 10 μM
Method: Cell Proliferation Inhibitory Test
ES-2 ovarian cancer cells were seeded in a 96 well plate at 1×10^3 cells/well, and incubated at 37° C. in the presence of 5% CO2 for 24 hr. Then, the compound was added at a final concentration of 10 μM, and the cells were cultured at 37° C. in the presence of 5% CO2 for 72 hr. For activity measurement of viable cells, a CCK-8 reagent (Cell Counting Kit-8, DOJINDO) was added, the cells were incubated at 37° C. for 1.5 hr, and the absorbance at 450 nm was measured by a microplate reader. Assuming the dehydrogenase activity in the DMSO alone addition group as 0%, and that in a cell-free well containing only a medium as 100%, the dehydrogenase activity of the compound addition group was calculated in percentage.

Row | SMILES | inhibition at 3 µM [1] [%] | inhibition at 3 µM [2] [%] | inhibition at 10 µM [3] [%]
1 | CCN(CC)CCNC1=NC(=O)S/C1=C\c1ccc(Oc2ccc(C(F)(F)F)cc2Cl)c(OC)c1 [Example 94, (5Z)-5-({4-[2-chloro-4-(trifluoromethyl)phenoxy]-3-methoxyphenyl}methylidene)-4-{[2-(diethylamino)ethyl]amino}-1,3-thiazol-2(5H)-one] | 90 | 107 | 100
2 | COc1cc(/C=C2\SC(=O)N=C2NCCC2CCCN2C)ccc1Oc1ccc(C#N)c2ccccc12 (stereo not drawn) [Example 96, 4-(2-methoxy-4-{(Z)-[4-{[2-(1-methylpyrrolidin-2-yl)ethyl]amino}-2-oxo-1,3-thiazol-5(2H)-ylidene]methyl}phenoxy)naphthalene-1-carbonitrile] | 87 | 114 | 102
3 | CCN1C(=N)/C(=C/c2ccc(Oc3ccc(C#N)cc3C(F)(F)F)c(OC)c2)N(C)C1=O [Example 145, 4-{4-[(Z)-(1-ethyl-5-imino-3-methyl-2-oxoimidazolidin-4-ylidene)methyl]-2-methoxyphenoxy}-3-(trifluoromethyl)benzonitrile] | 95 | 93 | 98
4 | CCN1C(=N)/C(=C/c2ccc(Oc3ccc(C#N)cc3C(F)(F)F)c(OC)c2)NC1=O [Example 25, 4-{4-[(Z)-(1-ethyl-5-imino-2-oxoimidazolidin-4-ylidene)methyl]-2-methoxyphenoxy}-3-(trifluoromethyl)benzonitrile] | 89 | 98 | 61
5 | CCN1C(=N)/C(=C/c2ccc(OCc3ccc(C(F)(F)F)cc3C(F)(F)F)c(OC)c2)N(C)C1=O [Example 32, (4Z)-4-[(4-{[2,4-bis(trifluoromethyl)benzyl]oxy}-3-methoxyphenyl)methylidene]-1-ethyl-5-imino-3-methylimidazolidin-2-one] | 91 | 103 | 98
6 | COc1cc(/C=C2\SC(=O)N=C2NCCC2CCCN2C)ccc1Oc1ccc(C#N)cc1C(F)(F)F (stereo not drawn) [Example 93, 4-(2-methoxy-4-{(Z)-[4-{[2-(1-methylpyrrolidin-2-yl)ethyl]amino}-2-oxo-1,3-thiazol-5(2H)-ylidene]methyl}phenoxy)-3-(trifluoromethyl)benzonitrile] | 88 | 105 | 101
7 | CCN1C(=N)/C(=C\c2ccc(Oc3ccc(C#N)cc3C(F)(F)F)c(OC)c2)N(C)C1=O [Example 143, 4-{4-[(E)-(1-ethyl-5-imino-3-methyl-2-oxoimidazolidin-4-ylidene)methyl]-2-methoxyphenoxy}-3-(trifluoromethyl)benzonitrile] | 94 | 92 | 88
8 | COc1cc(/C=C2\SC(=O)N=C2NCC(C)(C)O)ccc1Oc1ccc(C#N)cc1C(F)(F)F [Example 116, 4-{4-[(Z)-{4-[(2-hydroxy-2-methylpropyl)amino]-2-oxo-1,3-thiazol-5(2H)-ylidene}methyl]-2-methoxyphenoxy}-3-(trifluoromethyl)benzonitrile] | 93 | 105 | 101
